In US9141756B1, “Multi-scale complex systems transdisciplinary analysis of response to therapy” (University of Southern California, priority 2010, dated 2015):
Like-named read-outs stand apart in the source and are kept apart here.

Columns and labels:
Eμ-myc lymphomas = conditions: cited from earlier work
[1] = test system: A431-sensitive cancer cell line; assay: SILAC proteomic profiling of response to gefitinib

Structure (SMILES)	Phenotype: response to CTX (Eμ-myc lymphomas; Eμ-Myc genotype)	Phenotype: response to CTX (Eμ-myc lymphomas; Eμ-Myc/Arf −/− genotype (lymphoma lacking ARF))	Phenotype: response to CTX (Eμ-myc lymphomas; Eμ-Myc/Bcl2 genotype)	Phenotype: response to CTX (Eμ-myc lymphomas; Eμ-Myc/p53 −/− genotype (lymphoma lacking p53))	proteins showing a statistically significant change in abundance following treatment ([1]; A431 cells, SILAC)	potential cell-surface biomarkers showing changes in abundance in response to therapy ([1]; both in vitro and in vivo (xenograft))	additional proteins showing changes in the secretome and serum ([1]; secretome and serum)
O=P1(N(CCCl)CCCl)NCCCO1 (stereo not shown) [CTX, cyclophosphamide]	variable response to CTX	slightly resistant to CTX	medium resistant to CTX	highly resistant to CTX	–	–	–
COc1cc2ncnc(Nc3ccc(F)c(Cl)c3)c2cc1OCCCN1CCOCC1 [geftinib, gefitinib]	–	–	–	–	400	Ten	seven
